This is an account of results in ChEMBL document CHEMBL1275471, “ISEcp1-mediated transposition of qnrB-like gene in Escherichia coli” (2008).

Format in all cases: functional
In assay [1] the test system is Escherichia coli. Kind of assay: Antimicrobial activity against azide-resistant Escherichia coli J53 by CLSI method.
Assay [2] concerns Escherichia coli. Briefly: Antimicrobial activity against Escherichia coli J53 transconjugate by CLSI method.
In assay [3] the test system is Escherichia coli. Briefly: Antimicrobial activity against Escherichia coli R4525 expressing gyrA S83L and D87Y and parC S80I and E84G mutant gene by CLSI method.

Converted amounts (≈) assume the structure as drawn.

In the case of `CCN1CCN(c2cc3c(cc2F)c(=O)c(C(=O)O)cn3C2CC2)CC1` [ENROFLOXACIN], the MIC (commonly the smallest concentration in the dilution series that meets the test's criterion for growth inhibition) in the assay on Escherichia coli [1] was 0.01 µg/mL (≈ 0.0278 µM); against Escherichia coli [2], 0.5 µg/mL (≈ 1.39 µM); against Escherichia coli [3] it was over 32 µg/mL.

With `CCn1cc(C(=O)O)c(=O)c2ccc(C)nc21` [NALIDIXIC ACID], the MIC against Escherichia coli [1] is 4 µg/mL (≈ 17.2 µM); in the assay on Escherichia coli [2], 32 µg/mL (≈ 138 µM); in the assay on Escherichia coli [3] it was over 256 µg/mL.

Consider `CCn1cc(C(=O)O)c(=O)c2cc(F)c(N3CCNCC3)cc21` [NORFLOXACIN], for which the MIC with Escherichia coli [1] was 0.12 µg/mL (≈ 0.376 µM); in the assay on Escherichia coli [2], 1 µg/mL (≈ 3.13 µM); against Escherichia coli [3] it was over 256 µg/mL.

Molecule `CC1COc2c(N3CCN(C)CC3)c(F)cc3c(=O)c(C(=O)O)cn1c23` (stereo not drawn) [OFLOXACIN] showed an MIC in the assay on Escherichia coli [3] of over 32 µg/mL.

Regarding `C[C@@H]1CN(c2c(F)c(N)c3c(=O)c(C(=O)O)cn(C4CC4)c3c2F)C[C@H](C)N1` [SPARFLOXACIN], the results for the MIC in the assay on Escherichia coli [1], with Escherichia coli [2] and against Escherichia coli [3] were 0.01 µg/mL (≈ 0.0255 µM), 1 µg/mL (≈ 2.55 µM) and over 32 µg/mL, respectively.
